Measured values from PMC8003416, “Modulation of Human Phenylalanine Hydroxylase by 3-Hydroxyquinolin-2(1H)-One Derivatives” (Biomolecules, 2021).

How the values were obtained:
[1] = molecular target: T1, hPAH transiently expressed in HEK-293T cells (Homo sapiens, UniProt P00439); assay: hPAH activity and protein level in transfected HEK-293T cells; assay type: cell-based; settings: 24 h; for hPAH protein content after translation block / increase in hPAH expression (protein level): 50 μM; for hPAH protein content after translation block: then 10 μg/mL puromycin, 1, 3, 6 h; for increase in hPAH expression (protein level): western blot normalized to GAPDH; for hPAH activity in cell lysate: 50 and 100 μM, vs DMSO
T1 construct: expressed in transfected cells; host or cells: HEK-293T (ATCC CRL-11268)
T1 sequence (P00439 1-452): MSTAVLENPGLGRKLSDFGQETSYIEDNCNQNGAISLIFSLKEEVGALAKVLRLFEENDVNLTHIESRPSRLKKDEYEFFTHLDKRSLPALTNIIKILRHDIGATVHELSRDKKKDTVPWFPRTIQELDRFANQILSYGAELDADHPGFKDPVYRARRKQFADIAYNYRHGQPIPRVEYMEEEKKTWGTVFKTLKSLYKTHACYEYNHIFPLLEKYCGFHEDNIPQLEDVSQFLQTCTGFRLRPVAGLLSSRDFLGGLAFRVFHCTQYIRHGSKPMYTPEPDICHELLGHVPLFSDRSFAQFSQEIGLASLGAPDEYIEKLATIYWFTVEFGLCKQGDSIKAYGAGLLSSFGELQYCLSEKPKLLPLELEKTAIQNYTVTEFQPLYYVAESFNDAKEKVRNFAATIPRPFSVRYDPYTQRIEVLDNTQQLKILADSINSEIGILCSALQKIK
Method: HEK-293T cells (ATCC CRL-11268) were grown in RPMI 1640 medium (Gibco Life Technologies¸ Carlsbad, CA, USA) and supplemented with heat inactivated (60 °C for 30 min) fetal bovine serum (10%; v/v), penicillin (100 U/mL) and streptomycin (0.1 mg/mL) at 37 °C, in 5% CO2 in a humidified atmosphere. 1 × 10^5 cells were transfected with 750 ng of DNA (eukaryotic vector expressing hPAH; pEF-DEST51-PAH-WT) using lipofectamine (Invitrogen) as the transfection agent. Compounds (50 and 100 μM) or DMSO (0.5 and 1%) were added 4 h after transfection, and cells were further incubated for 24 h. For sample collection cells were trypsinized with 500 μL of TripLE Express (Gibco Life Technologies), centrifuged at 200× g for 5 min, at 4 °C, and washed with PBS. The pellet was resuspended in 50 μL of PBS with 200 μM PMSF and cells were disrupted by passage (≈20×) through a fine needle. The cell debris were removed by centrifugation at 14,000× g for 5 min at 4 °C and the obtained cell lysates were used for enzymatic activity assays and western blot analysis. Three independent cell cultures were performed.
For the stability assays, after 24 h incubation with compounds, protein translation was stopped by the addition of 10 μg/mL puromycin (Sigma-Aldrich). Cells were collected at 0, 1, 3, and 6 h after blockage of translation. Two independent cell cultures were performed.
The hPAH activity of cell lysates was measured essentially as described in [26] in a final volume of 200 μL containing 1 mM L-Phe, 250 mM Na-Hepes, pH 7, 0.1 mg/mL catalase and 20 μL of cell lysate. After 4 min of pre-incubation, 100 μM (NH4)2Fe(II)SO4 was added to the mixture. Two min after ferrous ammonium sulphate addition, the reaction was initiated by the injection of BH4 (75 μM). Tyrosine production was assessed by measuring the increase in fluorescence intensity (λexc 274 nm and λem 304 nm) in a FLUOstar Omega microplate reader (BMG Labtech), at 25 °C, during 30 min. Enzyme activity was determined as the amount of L-Tyr produced per min per mg of total protein. For each cell culture enzymatic assays were performed in triplicate.
For western blot analysis of cell lysates, 4 μg of total protein were applied on an 8 to 16% mini-protean TGX precast polyacrylamide gel (Bio-Rad), and the proteins were transferred to a polyvinylidene fluoride (PVDF; GE Healthcare) membrane and visualized by immunodetection using mouse anti-PAH (MAB 5278; Millipore; Burlington, MA, USA) and mouse anti-glyceraldehyde 3-phosphate dehydrogenase (GAPDH (loading control); sc-365062, Santa Cruz Biotechnology; Dallas, TX, USA) as the primary antibodies and the anti-mouse IgG-HRP (W402B, Promega; Madison, WI, USA) as the secondary antibody. Immunoblots were developed with enhanced chemiluminescent agents (ECL Prime; GE Healthcare) and the images were acquired in a charge-coupled device imager ChemiDoc XRS (Bio-Rad) using the Quantity One software (Bio-Rad).

[2] = molecular target: T2, Factor Xa (FXa) (Bos taurus, UniProt P00743); assay: Factor Xa activity control with Boc-Ile-Glu-Gly-Arg-AMC; assay type: biochemical; settings: 100 μM compound; for FXa relative (residual) enzyme activity: 1% DMSO control = 100%; for Factor Xa Abs/min: control 597 ± 16
T2 construct: purchased New England Biolabs
T2 sequence (P00743 234-492 limits assumed): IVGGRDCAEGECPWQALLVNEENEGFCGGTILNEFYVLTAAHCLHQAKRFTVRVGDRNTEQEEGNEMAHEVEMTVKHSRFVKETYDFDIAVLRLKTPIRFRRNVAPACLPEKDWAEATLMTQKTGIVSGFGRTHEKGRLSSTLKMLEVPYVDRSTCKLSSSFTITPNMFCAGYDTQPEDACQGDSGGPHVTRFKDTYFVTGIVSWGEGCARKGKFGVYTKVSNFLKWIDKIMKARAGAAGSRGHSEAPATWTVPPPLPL
T2 sequence (P00743 41-180 partner limits assumed): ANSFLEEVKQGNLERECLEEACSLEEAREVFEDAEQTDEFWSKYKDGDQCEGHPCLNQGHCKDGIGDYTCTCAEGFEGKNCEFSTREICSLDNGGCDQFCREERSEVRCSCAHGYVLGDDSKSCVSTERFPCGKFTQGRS
Method: Self-assembly of the dimeric forms of hPAH-RD^1–120 was followed in real-time at 25 °C upon cleavage of MBP-FXa-hPAH-RD^1–120 with FXa (New England Biolabs) to release the MBP fusion partner. Assays (n = 3) were performed in the absence or presence of tested compounds as described in [17]. Briefly, FXa (at a final ratio 1:150 (w/w) relative to the fusion protein) was added to the reaction mixture containing the MBP-FXa-hPAH-RD^1–120 fusion protein (0.74 mg/mL), 20 mM Na-HEPES, 100 mM NaCl, pH 7.0 and tested 3HQ (100 μM). The increase in absorbance at 350 nm was followed for 180 min on a FLUOstar Omega (BMG Labtech) microplate reader. A shaking step was introduced before each measurement. Appropriate control assays were performed and included: (i) a positive control consisting of MBP-FXa-hPAH-RD^1–120 in the presence of FXa, 1% DMSO and in the absence of compounds; and (ii) a negative control consisting of MBP-FXa-hPAH-RD^1–120 in the absence of FXa and compounds. For all the assays, aliquots of the aggregation reaction were collected at the end of the reaction (180 min) and analyzed by SDS-PAGE to confirm the extent of MBP cleavage by FXa. In addition, the effect of tested compounds on FXa activity was monitored using the synthetic FXa substrate Boc–Ile–Glu-Gly–Arg–AMC (t-(Butyloxycarbonyl)-isoleucylglutamylglycylarginyl-7-amido-4-methylcoumarin; from Bachem). Assays (n = 3) were performed in a 96-well plate, in a final volume of 200 μL containing 20 mM Na-HEPES, 100 mM NaCl, pH 7.0, 5 μg/mL of FXa, 50 μM of Boc–Ile-Glu–Gly–Arg–AMC and 100 μM of 3HQ derivatives. Fluorescence was measured in real-time (λexc 360 nm and λem 460 nm) during 30 min, at 25 °C. Controls were performed using substrate alone with 1% DMSO (negative control) and FXa with no compounds and 1% DMSO (positive control).

SMILES	hPAH protein content after translation block [1]	increase in hPAH expression (protein level) [1]	hPAH activity in cell lysate [1]	FXa relative (residual) enzyme activity [2]	Factor Xa Abs/min [2]
COC(=O)CC[C@H](NC(=O)c1c(O)c(=O)[nH]c2ccc(OC(F)(F)F)cc12)C(=O)OC [Compound 9]	hPAH protein content is maintained as a function of time	1.8 fold	higher activity	77%	465 ± 29 Abs/min
COC(=O)CNC(=O)c1c(O)c(=O)[nH]c2ccc(OC(F)(F)F)cc12 [Compound 11]	hPAH protein content is maintained as a function of time	did not affect the hPAH protein levels	higher activity	69%	407 ± 8 Abs/min
